Experiment: Sublimability: decomposition temperature (TG/DTA, 5% mass loss) minus sublimation temperature
Assay type: physicochemical
Details: 5% mass reduction, sublimation: Ar flow, vacuum 1×10^−1 Pa
From the text: Table 4 presents the results of comparisons in sublimability between exemplified compound RD21 serving as the first guest and compound 1 and between exemplary compound RD30 serving as the first guest and compound 2. As an evaluation of sublimability, comparisons are made of the temperature difference between the sublimation temperature and the decomposition temperature (ΔT=decomposition temperature−sublimation temperature). A larger temperature difference can be said to indicate higher sublimability. With regard to the decomposition temperature, TG/DTA measurement was performed, and the temperature at which a reduction in mass reached 5% was defined as the decomposition temperature. With regard to the sublimation temperature, the sublimation purification was performed by slowly increasing the temperature while allowing Ar to flow at a degree of vacuum of 1×10^−1 Pa, and the temperature at which a sufficient sublimation rate was reached was defined as the sublimation temperature.

SMILES | ΔT = decomposition temperature − sublimation temperature
c1ccc(-c2ccccc2-c2c3cc4c(cc3c(-c3ccccc3)c3c5ccc6c7cccc8cccc(c9ccc(c23)c5c69)c87)c2ccc3c5cccc6cccc(c7ccc4c2c37)c65)cc1 [Exemplified compound RD21] | 100 °C
CC(C)(C)c1cc2cc(C(C)(C)C)cc3c4ccc5c6cc7c(-c8ccccc8)c8c9ccc%10c%11cc(C(C)(C)C)cc%12cc(C(C)(C)C)cc(c%13ccc(c8c(-c8ccccc8)c7cc6c6ccc(c(c1)c23)c4c65)c9c%13%10)c%12%11 [Compound 1] | 40 °C
c1ccc(-c2ccc(-c3ccccc3)c3c2-c2ccc4c5ccc6c7c(ccc(c8ccc-3c2c48)c75)-c2c(-c3ccc4ccccc4c3)ccc(-c3ccc4ccccc4c3)c2-6)cc1 [Compound 2] | 60 °C
c1ccc(-c2ccccc2-c2ccc(-c3ccccc3-c3ccccc3)c3c2-c2ccc4c5ccc6c7c(ccc(c8ccc-3c2c48)c75)-c2c(-c3ccccc3)ccc(-c3ccccc3)c2-6)cc1 [Exemplified compound RD30] | 130 °C
